Molecules are shown by their SMILES.

From ChEMBL document CHEMBL5291721, “A preclinical secondary pharmacology resource illuminates target-adverse drug reaction associations of marketed drugs” (Nat Commun, 2023) come the findings set out here.

For one assay, the target named is T1, Androgen receptor (Homo sapiens, UniProt P10275).
T1 sequence (P10275 whole entry): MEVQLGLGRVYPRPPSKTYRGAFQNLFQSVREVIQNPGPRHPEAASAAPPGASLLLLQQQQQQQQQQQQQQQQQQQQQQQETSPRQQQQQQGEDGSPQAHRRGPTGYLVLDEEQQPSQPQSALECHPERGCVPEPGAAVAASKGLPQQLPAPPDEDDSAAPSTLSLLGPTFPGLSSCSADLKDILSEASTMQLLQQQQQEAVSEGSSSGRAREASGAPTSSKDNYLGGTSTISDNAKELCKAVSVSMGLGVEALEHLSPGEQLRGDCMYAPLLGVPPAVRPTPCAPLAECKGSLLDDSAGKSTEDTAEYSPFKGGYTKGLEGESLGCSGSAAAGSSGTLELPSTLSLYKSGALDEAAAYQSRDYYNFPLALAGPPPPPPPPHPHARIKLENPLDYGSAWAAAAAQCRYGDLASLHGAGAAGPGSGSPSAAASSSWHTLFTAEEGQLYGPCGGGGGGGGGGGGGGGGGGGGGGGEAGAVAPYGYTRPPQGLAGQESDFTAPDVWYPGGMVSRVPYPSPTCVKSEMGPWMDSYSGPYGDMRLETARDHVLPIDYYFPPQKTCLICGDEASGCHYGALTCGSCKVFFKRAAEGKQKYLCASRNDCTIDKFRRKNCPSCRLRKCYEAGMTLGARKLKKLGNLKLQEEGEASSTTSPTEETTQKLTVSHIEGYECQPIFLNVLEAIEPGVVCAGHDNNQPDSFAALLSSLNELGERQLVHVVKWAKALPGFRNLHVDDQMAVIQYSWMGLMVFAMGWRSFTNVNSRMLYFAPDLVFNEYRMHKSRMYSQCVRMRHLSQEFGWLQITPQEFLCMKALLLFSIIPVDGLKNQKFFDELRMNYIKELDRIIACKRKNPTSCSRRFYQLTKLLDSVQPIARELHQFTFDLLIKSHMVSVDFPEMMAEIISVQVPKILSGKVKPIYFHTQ

Assay [1] has as its target T2, Alpha-1A adrenergic receptor (Homo sapiens, UniProt P35348).
T2 sequence (P35348 whole entry): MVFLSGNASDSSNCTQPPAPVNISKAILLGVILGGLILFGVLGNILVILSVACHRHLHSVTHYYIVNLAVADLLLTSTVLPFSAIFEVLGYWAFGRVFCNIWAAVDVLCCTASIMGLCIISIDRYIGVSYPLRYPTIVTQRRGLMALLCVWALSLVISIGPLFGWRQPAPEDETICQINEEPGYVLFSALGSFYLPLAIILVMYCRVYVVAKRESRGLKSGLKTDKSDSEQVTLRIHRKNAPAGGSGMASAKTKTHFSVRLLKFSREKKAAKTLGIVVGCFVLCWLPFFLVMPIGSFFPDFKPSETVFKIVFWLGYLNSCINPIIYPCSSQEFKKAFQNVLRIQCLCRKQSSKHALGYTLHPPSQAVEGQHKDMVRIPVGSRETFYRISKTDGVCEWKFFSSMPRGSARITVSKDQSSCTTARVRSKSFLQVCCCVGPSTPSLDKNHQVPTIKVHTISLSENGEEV
It counts as functional, cell-based.

Assay [2] concerns the target T3, Alpha-2A adrenergic receptor (Homo sapiens, UniProt P08913).
T3 sequence (P08913 whole entry): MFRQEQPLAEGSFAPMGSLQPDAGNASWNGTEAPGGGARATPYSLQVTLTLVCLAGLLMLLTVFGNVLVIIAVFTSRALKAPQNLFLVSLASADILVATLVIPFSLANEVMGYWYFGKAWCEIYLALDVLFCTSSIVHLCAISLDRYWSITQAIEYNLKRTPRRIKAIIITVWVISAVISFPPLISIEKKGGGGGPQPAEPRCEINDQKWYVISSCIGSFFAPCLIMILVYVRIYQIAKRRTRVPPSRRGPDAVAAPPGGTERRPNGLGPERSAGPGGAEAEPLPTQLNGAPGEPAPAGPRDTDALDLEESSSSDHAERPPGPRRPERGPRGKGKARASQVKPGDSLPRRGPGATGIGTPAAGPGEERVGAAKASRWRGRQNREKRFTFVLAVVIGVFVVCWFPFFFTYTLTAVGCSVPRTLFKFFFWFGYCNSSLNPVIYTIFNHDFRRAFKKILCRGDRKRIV
It counts as functional, cell-based.

Assay [3] concerns the target T4, Alpha-2C adrenergic receptor (Homo sapiens, UniProt P18825).
T4 sequence (P18825 whole entry): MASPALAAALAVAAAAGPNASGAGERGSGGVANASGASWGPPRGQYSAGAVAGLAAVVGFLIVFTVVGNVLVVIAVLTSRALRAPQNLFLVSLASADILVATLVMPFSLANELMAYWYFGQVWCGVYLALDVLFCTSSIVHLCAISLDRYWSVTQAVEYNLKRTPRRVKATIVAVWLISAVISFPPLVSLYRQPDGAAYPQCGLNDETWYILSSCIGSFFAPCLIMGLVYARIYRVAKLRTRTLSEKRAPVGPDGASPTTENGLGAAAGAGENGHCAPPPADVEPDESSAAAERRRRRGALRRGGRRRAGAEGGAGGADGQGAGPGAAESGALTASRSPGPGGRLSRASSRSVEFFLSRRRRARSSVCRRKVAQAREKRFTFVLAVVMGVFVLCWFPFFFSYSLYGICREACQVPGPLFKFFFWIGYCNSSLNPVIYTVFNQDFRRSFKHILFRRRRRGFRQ
It counts as functional.

Assay [4] addresses T5, Beta-2 adrenergic receptor (Homo sapiens, UniProt P07550). It counts as functional, cell-based.
Assay [5] deals with T5, Beta-2 adrenergic receptor.
For assay [6], the target named is Neuronal acetylcholine receptor subunit alpha-4 (Homo sapiens, UniProt P43681).
Sequence of Neuronal acetylcholine receptor subunit alpha-4 (P43681 whole entry): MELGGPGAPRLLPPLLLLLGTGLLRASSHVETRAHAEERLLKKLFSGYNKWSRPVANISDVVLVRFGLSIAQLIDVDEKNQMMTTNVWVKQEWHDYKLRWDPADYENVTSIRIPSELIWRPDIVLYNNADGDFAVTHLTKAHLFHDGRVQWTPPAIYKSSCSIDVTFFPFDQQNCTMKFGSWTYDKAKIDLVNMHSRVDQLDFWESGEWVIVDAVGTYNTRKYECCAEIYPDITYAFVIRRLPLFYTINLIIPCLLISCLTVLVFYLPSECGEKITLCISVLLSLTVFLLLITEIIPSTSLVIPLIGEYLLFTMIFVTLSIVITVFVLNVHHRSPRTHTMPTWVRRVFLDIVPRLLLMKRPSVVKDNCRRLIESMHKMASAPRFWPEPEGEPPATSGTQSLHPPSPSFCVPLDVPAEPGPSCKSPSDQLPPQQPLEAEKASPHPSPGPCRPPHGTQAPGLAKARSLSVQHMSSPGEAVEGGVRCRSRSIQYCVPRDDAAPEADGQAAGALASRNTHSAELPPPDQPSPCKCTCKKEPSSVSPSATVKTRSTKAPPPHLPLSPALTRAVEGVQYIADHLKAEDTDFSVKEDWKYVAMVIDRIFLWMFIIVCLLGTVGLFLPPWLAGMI
Assay [7] deals with T6, 5-hydroxytryptamine receptor 1A (Homo sapiens, UniProt P08908).
T6 sequence (P08908 whole entry): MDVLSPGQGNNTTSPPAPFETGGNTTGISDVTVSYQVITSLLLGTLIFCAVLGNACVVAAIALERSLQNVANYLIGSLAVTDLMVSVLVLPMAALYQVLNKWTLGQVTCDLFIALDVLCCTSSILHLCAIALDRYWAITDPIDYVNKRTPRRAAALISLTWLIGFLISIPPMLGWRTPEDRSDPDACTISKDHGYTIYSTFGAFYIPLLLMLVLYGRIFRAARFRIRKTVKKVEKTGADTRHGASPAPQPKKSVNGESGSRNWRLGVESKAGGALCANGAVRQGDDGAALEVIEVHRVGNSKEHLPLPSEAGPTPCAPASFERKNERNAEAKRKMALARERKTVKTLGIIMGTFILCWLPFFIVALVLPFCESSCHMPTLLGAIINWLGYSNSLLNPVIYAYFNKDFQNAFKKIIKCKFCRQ
It counts as functional, cell-based.

Assay [8] deals with Sodium-dependent dopamine transporter (Homo sapiens, UniProt Q01959).
Sequence of Sodium-dependent dopamine transporter (Q01959 whole entry): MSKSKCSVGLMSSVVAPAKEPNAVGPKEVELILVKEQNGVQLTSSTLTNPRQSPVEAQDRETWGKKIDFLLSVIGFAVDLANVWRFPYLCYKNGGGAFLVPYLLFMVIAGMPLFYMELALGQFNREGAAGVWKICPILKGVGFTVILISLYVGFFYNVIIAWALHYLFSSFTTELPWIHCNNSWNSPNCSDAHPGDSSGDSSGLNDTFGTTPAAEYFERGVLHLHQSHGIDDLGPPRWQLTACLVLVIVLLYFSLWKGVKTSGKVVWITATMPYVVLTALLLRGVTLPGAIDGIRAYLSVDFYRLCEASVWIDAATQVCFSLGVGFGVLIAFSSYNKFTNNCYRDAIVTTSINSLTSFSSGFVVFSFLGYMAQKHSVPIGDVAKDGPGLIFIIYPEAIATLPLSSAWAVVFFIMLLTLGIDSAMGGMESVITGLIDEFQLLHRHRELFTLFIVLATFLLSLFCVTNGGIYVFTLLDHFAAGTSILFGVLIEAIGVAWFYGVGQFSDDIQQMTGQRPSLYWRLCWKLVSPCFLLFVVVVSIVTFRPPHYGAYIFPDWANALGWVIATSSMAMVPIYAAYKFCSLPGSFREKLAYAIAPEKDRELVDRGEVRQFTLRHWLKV
Also: assay procedure not described here.

T5 sequence (P07550 whole entry): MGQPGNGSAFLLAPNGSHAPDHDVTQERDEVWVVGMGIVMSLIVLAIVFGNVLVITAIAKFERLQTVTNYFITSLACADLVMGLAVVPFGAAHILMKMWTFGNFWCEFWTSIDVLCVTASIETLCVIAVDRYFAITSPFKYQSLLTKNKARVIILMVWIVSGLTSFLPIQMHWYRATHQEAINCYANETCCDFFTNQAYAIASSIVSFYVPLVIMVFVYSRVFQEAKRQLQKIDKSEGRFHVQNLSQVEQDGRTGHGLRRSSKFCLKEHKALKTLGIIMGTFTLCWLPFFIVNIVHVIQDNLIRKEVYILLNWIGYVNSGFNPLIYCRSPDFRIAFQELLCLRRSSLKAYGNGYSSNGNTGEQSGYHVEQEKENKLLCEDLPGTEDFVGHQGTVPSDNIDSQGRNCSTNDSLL

The term AC50 denotes the concentration at which the activity in the assay is half-maximal. `CC[C@]12CCCN3CCc4c(n(c5ccccc45)[C@@](O)(C(=O)OC)C1)[C@@H]32` [VINCAMINE] showed an AC50 at Androgen receptor greater than 30 µM.

Regarding `CC[C@H](C)C(=O)O[C@H]1C[C@@H](C)C=C2C=C[C@H](C)[C@H](CC[C@@H]3C[C@@H](O)CC(=O)O3)[C@H]21` [LOVASTATIN], the AC50 in [1] was greater than 30 µM; in [2] it was greater than 10 µM; in [3], greater than 10 µM; in [4], greater than 30 µM; in assay [5] it was greater than 10 µM; in [6], greater than 10 µM. For the same compound, the concentration at half-maximal activity (AC50) in assay [7] and in assay [8] was greater than 10 µM throughout.

At Androgen receptor, `CC(C)[C@@H]1CC[C@@H](C)C[C@H]1O` [LEVOMENTHOL] returned an AC50 greater than 30 µM.

`CC(=O)NO` [ACETOHYDROXAMIC ACID]: the concentration at half-maximal activity (AC50) at Androgen receptor is greater than 30 µM.

`C[C@H]1CN(C[C@H](Cc2ccccc2)C(=O)NCC(=O)O)CC[C@@]1(C)c1cccc(O)c1` [ALVIMOPAN] registered an AC50 on Androgen receptor greater than 30 µM.

For `N=C(N)N/N=C/c1c(Cl)cccc1Cl` [GUANABENZ], the half-maximal activity concentration (AC50) on Androgen receptor was greater than 30 µM.

On Androgen receptor, `Cc1ccsc1C(=CCCN1CCC[C@@H](C(=O)O)C1)c1sccc1C` [TIAGABINE] yielded a half-maximal activity concentration (AC50) greater than 30 µM.

As for `CC(C)[C@H](N)C(=O)OCCOCn1cnc2c(=O)[nH]c(N)nc21` [VALACYCLOVIR], the AC50 in assay [1] is greater than 30 µM; in assay [2], greater than 10 µM; in assay [3], greater than 10 µM; in assay [4], greater than 30 µM; in assay [5] it was greater than 10 µM; in assay [6] it was greater than 10 µM. The AC50 in assay [7] and in assay [8] was greater than 10 µM throughout.

Regarding `CCCc1nc2c(C)cc(-c3nc4ccccc4n3C)cc2n1Cc1ccc(-c2ccccc2C(=O)O)cc1`, the AC50 in assay [1] was greater than 30 µM; in assay [2] it was greater than 30 µM; in assay [3], 12.5 µM; in [4], greater than 30 µM; in [5], greater than 30 µM; in assay [6], greater than 30 µM. For the same compound, the AC50 in [7] and in [8] was greater than 30 µM each time.

Turning to `CC(C)C(=O)Oc1ccc(CO)cc1[C@H](CCN(C(C)C)C(C)C)c1ccccc1` [FESOTERODINE], the AC50 on Androgen receptor is greater than 30 µM.

At Androgen receptor, `CCCCC1C(=O)N(c2ccccc2)N(c2ccc(O)cc2)C1=O` (stereo not given) [OXYPHENBUTAZONE ANHYDROUS] registered an AC50 greater than 30 µM.

For `Cc1nc(Nc2ncc(C(=O)Nc3c(C)cccc3Cl)s2)cc(N2CCN(CCO)CC2)n1` [DASATINIB], the AC50 in assay [1] is greater than 30 µM; in assay [2] it was greater than 30 µM; in assay [3], 19 µM; in assay [4], greater than 30 µM; in assay [5], greater than 10 µM; in assay [6] it was greater than 30 µM. The results for the AC50 in assay [7] and in assay [8] were greater than 30 µM and 25.3 µM, respectively.

Take `CCCNC(=O)NS(=O)(=O)c1ccc(Cl)cc1` [CHLORPROPAMIDE]: the AC50 in assay [1] was greater than 30 µM; in assay [2], greater than 10 µM; in [3], greater than 10 µM; in [4], greater than 30 µM; in [5], greater than 10 µM; in [6] it was greater than 10 µM. Also, the AC50 in assay [7] was greater than 10 µM; in assay [8], greater than 30 µM.

`CC(CN1c2ccccc2Sc2ccccc21)N(C)C` (stereo not given) [PROMETHAZINE]: the AC50 is greater than 30 µM in [1]; 3 µM in assay [3]; greater than 30 µM in [4]; greater than 10 µM in assay [5]; greater than 10 µM in assay [6]; greater than 10 µM in assay [7]. The compound also had an AC50 in assay [8] greater than 10 µM.

In the case of `COc1cc(C(C)=O)ccc1OCCCN1CCC(c2noc3cc(F)ccc23)CC1` [ILOPERIDONE], the AC50 in assay [1] was greater than 30 µM; in assay [2] it was greater than 30 µM; in [3], 0.018 µM; in assay [4], greater than 30 µM; in assay [5] it was greater than 10 µM; in [6] it was 2 µM. Further, the concentration at half-maximal activity (AC50) came out at 0.055 µM in assay [7] and 5.95 µM in assay [8].

On to `Cc1ccc(C(=O)c2ccc(CC(=O)O)n2C)cc1` [TOLMETIN], for which the AC50 on Androgen receptor was greater than 30 µM.

On Androgen receptor, `C=CC(=O)Nc1cccc(Oc2nc(Nc3ccc(N4CCN(C)CC4)cc3)nc3ccsc23)c1` [OLMUTINIB] came in with an AC50 greater than 30 µM.

For the compound `CCOc1nc2cccc(C(=O)O)c2n1Cc1ccc(-c2ccccc2-c2nnn[nH]2)cc1`, the AC50 was greater than 30 µM in assay [1]; greater than 30 µM in assay [2]; greater than 30 µM in [3]; greater than 30 µM in assay [4]; greater than 10 µM in assay [5]; greater than 10 µM in assay [6]. The AC50 in [7] and in [8] was greater than 30 µM throughout.

For the compound `O=C(O)Cc1ccccc1Oc1ccc(Cl)cc1Cl` [FENCLOFENAC], the AC50 was greater than 30 µM in assay [1]; greater than 10 µM in assay [2]; greater than 10 µM in assay [3]; greater than 30 µM in [4]; greater than 10 µM in assay [5]; greater than 10 µM in assay [6]. For the same compound, the AC50 in assay [7] and in [8] was greater than 10 µM throughout.

Consider `CCOc1cc([C@@H](CS(C)(=O)=O)N2C(=O)c3cccc(NC(C)=O)c3C2=O)ccc1OC`, for which the AC50 in [1], in assay [2], in assay [3], in assay [4], in assay [6] and in assay [7] was greater than 30 µM throughout. This compound also came in with an AC50 in assay [8] greater than 30 µM.

As for `Cc1onc(-c2c(F)cccc2Cl)c1C(=O)N[C@@H]1C(=O)N2[C@@H]1SC(C)(C)[C@@H]2C(=O)O` [FLOXACILLIN], the AC50 in [1], in [2], in assay [3], in [4], in assay [6] and in [7] was greater than 30 µM in each case. Moreover, the AC50 in assay [8] was greater than 30 µM.
